Measurements as given in patent publication US8404677B2, “Kinase inhibitors” (Genosco, priority 2009, dated 2013).

Columns and labels:
OVCAR-3 = experiment: cells; format: cell-based; conditions: OVCAR-3 (Ovarian Cancer)
NCI-H23 = experiment: cells; format: cell-based; conditions: NCI-H23 (NSCLC)
EKVX = experiment: cells; format: cell-based; conditions: EKVX (NSCLC)
SF-295 = experiment: cells; format: cell-based; conditions: SF-295 (CNS Cancer)
truncated human LRRK2 = truncated human LRRK2 (Homo sapiens, UniProt Q5S007); experiment: Inhibition of enzymatic kinase activity (LANCE Ulight); format: biochemical
truncated human LRRK2, sequence (Q5S007 1879-2138 limits assumed): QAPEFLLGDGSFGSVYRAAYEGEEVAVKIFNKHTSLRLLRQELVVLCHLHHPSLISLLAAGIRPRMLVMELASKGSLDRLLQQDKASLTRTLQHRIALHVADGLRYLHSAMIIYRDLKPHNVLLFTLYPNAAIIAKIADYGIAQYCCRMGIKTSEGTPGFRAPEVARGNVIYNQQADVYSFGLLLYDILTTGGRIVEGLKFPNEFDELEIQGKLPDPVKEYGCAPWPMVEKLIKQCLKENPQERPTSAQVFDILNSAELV

truncated human RET = target: T1, truncated human RET (Homo sapiens, UniProt P07949); experiment: as above; format: biochemical
T1 construct: truncated human FAK, RET, FLT3, JAK2, and LRRK2 (CARNA BIOSCIENCES™); purchased Carna Biosciences
T1 sequence (P07949 658-1114 limits assumed): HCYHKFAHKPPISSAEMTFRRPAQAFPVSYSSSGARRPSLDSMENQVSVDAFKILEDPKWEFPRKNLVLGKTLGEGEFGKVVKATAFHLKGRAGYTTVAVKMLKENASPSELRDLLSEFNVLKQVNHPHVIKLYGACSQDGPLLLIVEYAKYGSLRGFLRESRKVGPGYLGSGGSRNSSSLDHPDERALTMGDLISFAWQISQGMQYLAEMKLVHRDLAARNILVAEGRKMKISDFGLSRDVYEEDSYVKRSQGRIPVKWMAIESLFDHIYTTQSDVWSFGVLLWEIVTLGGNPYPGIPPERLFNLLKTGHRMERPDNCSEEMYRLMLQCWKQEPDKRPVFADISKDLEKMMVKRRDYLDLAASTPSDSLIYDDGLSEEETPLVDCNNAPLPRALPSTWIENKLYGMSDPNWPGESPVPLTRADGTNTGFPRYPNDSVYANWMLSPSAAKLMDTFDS

human ZAP70 = target: T2, human ZAP70 (Homo sapiens, UniProt P43403); experiment: as above; format: biochemical; conditions: at 1 μM concentration; read-out: ZAP70 percentage inhibition
T2 construct: Purified full-length human SYK, ZAP70, PIM1, PYK2; purchased Carna Biosciences
T2 sequence (P43403 1-619): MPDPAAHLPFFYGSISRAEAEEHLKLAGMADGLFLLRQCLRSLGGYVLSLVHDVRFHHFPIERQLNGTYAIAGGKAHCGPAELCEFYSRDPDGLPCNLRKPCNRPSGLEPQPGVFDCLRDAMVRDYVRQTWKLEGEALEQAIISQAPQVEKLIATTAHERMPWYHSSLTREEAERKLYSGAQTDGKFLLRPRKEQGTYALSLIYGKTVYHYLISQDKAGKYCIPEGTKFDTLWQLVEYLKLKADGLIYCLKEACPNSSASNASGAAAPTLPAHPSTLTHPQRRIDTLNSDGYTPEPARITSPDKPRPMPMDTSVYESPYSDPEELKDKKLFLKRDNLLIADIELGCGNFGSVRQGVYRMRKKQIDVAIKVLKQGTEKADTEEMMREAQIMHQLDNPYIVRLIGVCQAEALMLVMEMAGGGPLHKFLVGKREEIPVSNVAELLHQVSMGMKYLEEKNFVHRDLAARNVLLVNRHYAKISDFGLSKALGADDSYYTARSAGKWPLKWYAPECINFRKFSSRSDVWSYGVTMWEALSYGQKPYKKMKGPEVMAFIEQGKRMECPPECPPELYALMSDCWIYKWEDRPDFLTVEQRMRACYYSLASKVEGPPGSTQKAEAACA

truncated human FAK = target: T3, truncated human FAK (Homo sapiens, UniProt Q05397); experiment: as above; format: biochemical; conditions: at 1 μM concentration; read-out: FAK percentage inhibition
T3 construct: truncated human FAK, RET, FLT3, JAK2, and LRRK2 (CARNA BIOSCIENCES™); purchased Carna Biosciences
T3 sequence (Q05397 376-1052 limits assumed): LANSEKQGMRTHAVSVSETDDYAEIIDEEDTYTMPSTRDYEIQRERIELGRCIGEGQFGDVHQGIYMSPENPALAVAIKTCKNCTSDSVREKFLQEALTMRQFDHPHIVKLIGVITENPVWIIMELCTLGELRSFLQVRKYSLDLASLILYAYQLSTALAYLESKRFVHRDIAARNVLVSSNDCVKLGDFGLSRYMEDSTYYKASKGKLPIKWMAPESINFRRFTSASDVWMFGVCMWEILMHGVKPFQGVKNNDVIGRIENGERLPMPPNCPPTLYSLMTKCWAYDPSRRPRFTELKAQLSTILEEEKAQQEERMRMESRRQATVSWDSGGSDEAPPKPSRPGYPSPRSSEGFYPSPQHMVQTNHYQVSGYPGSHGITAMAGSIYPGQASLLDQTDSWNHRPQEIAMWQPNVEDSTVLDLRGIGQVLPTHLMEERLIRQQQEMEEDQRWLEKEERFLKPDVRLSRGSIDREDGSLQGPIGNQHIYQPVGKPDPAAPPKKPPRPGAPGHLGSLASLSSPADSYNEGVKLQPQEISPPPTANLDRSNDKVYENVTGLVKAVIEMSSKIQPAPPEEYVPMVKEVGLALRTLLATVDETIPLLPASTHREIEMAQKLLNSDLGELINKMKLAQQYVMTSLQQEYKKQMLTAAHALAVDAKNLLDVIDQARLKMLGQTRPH

HT29 = experiment: cells; format: cell-based; conditions: HT29 (Colon Cancer)
UACC-62 = experiment: cells; format: cell-based; conditions: UACC-62 (Melanoma)
SK-OV-3 = experiment: cells; format: cell-based; conditions: SK-OV-3 (Ovarian Cancer)
CAKI-1 = experiment: cells; format: cell-based; conditions: CAKI-1 (Renal Cancer)
SW-620 = experiment: cells; format: cell-based; conditions: SW-620 (Colon Cancer)
NCI-H460 = experiment: cells; format: cell-based; conditions: NCI-H460 (NSCLC)
[1] = Homo sapiens, read-out: LC50 (the source's name)

**Q.** `O=c1[nH]ccc2nc(N3CCC(O)CC3)nc(Nc3cccc(C(F)(F)F)c3)c12` [Compound 6, 2-(4-hydroxypiperidin-1-yl)-4-(3-(trifluoromethyl)phenylamino)pyrido[4,3-d]pyrimidine-5(6H)-one] was tested. Which GI50 (OVCAR-3; Homo sapiens) did it give?
**A.** 1.35 µM

**Q.** What about the IC50 (OVCAR-3; Homo sapiens) of the same compound?
**A.** 3.63 µM

**Q.** And the CC50 (OVCAR-3; [1])?
**A.** 46.8 µM

**Q.** What about the TGI (OVCAR-3) of the same compound?
**A.** 3.98 µM

**Q.** What about the GI50 (NCI-H23; Homo sapiens) of the same compound?
**A.** 3.24 µM

**Q.** And the IC50 (NCI-H23; Homo sapiens)?
**A.** 6.92 µM

**Q.** What about the CC50 (NCI-H23; [1]) of the same compound?
**A.** 50.1 µM

**Q.** What about the TGI (NCI-H23) of the same compound?
**A.** 13.8 µM

**Q.** And the TGI (EKVX)?
**A.** 12 µM

**Q.** What about the GI50 (EKVX; Homo sapiens) of the same compound?
**A.** 2.88 µM

**Q.** And the IC50 (EKVX; Homo sapiens)?
**A.** 7.59 µM

**Q.** And the CC50 (EKVX; [1])?
**A.** 100 µM

**Q.** What about the GI50 (SF-295; Homo sapiens) of the same compound?
**A.** 2.95 µM

**Q.** And the IC50 (SF-295; Homo sapiens)?
**A.** 6.76 µM

**Q.** What about the CC50 (SF-295; [1]) of the same compound?
**A.** 56.2 µM

**Q.** What about the TGI (SF-295) of the same compound?
**A.** 7.76 µM

**Q.** And the IC50 (truncated human LRRK2)?
**A.** 0.054 µM

**Q.** And the IC50 (truncated human RET)?
**A.** 0.0942 µM

**Q.** What about the inhibition at 1 µM (human ZAP70) of the same compound?
**A.** 49%

**Q.** What about the inhibition at 1 µM (truncated human FAK) of the same compound?
**A.** 78%

**Q.** What about the TGI (HT29) of the same compound?
**A.** 95.5 µM

**Q.** What about the GI50 (HT29; Homo sapiens, HT-29) of the same compound?
**A.** 3.89 µM

**Q.** What about the IC50 (HT29; Homo sapiens, HT-29) of the same compound?
**A.** 7.08 µM

**Q.** And the CC50 (HT29; Homo sapiens, HT-29, read-out: LC50 (the source's name))?
**A.** 100 µM

**Q.** And the GI50 (UACC-62; Homo sapiens)?
**A.** 1.82 µM

**Q.** And the IC50 (UACC-62; Homo sapiens)?
**A.** 3.98 µM

**Q.** What about the CC50 (UACC-62; [1]) of the same compound?
**A.** 27.5 µM

**Q.** And the TGI (UACC-62)?
**A.** 6.92 µM

**Q.** What about the GI50 (SK-OV-3; Homo sapiens) of the same compound?
**A.** 0.49 µM

**Q.** What about the IC50 (SK-OV-3; Homo sapiens) of the same compound?
**A.** 20 µM

**Q.** And the CC50 (SK-OV-3; [1])?
**A.** 100 µM

**Q.** And the TGI (SK-OV-3)?
**A.** 100 µM

**Q.** What about the TGI (CAKI-1) of the same compound?
**A.** 6.31 µM

**Q.** And the GI50 (CAKI-1; Homo sapiens)?
**A.** 0.282 µM

**Q.** What about the IC50 (CAKI-1; Homo sapiens) of the same compound?
**A.** 1.29 µM

**Q.** And the CC50 (CAKI-1; [1])?
**A.** 100 µM

**Q.** What about the GI50 (SW-620; Homo sapiens) of the same compound?
**A.** 1.91 µM

**Q.** What about the IC50 (SW-620; Homo sapiens) of the same compound?
**A.** 2.82 µM

**Q.** And the CC50 (SW-620; [1])?
**A.** 74.1 µM

**Q.** What about the TGI (SW-620) of the same compound?
**A.** 12.9 µM

**Q.** And the GI50 (NCI-H460; Homo sapiens)?
**A.** 1.62 µM

**Q.** What about the IC50 (NCI-H460; Homo sapiens) of the same compound?
**A.** 2.4 µM

**Q.** What about the CC50 (NCI-H460; [1]) of the same compound?
**A.** 64.6 µM

**Q.** And the TGI (NCI-H460)?
**A.** 15.1 µM
